Source: patent US20250296959A1, “B7-H3 TARGETING PEPTIDES AND CONSTRUCTS THEREOF” (Mariana Oncology Inc., priority 2024, published 2025)
Starred links: 1 amine or outer side, 2 acyl side, 3 side chain; linkers in the order of their positions; H or OH if unused. Positions of bridges follow the written chain, without caps; N, C: chain ends. Non-standard residues stand in square brackets, D forms with d. Residues, ends and D or L forms follow the SMILES beside them. Groups on a side chain read outwards from the residue. *: point of attachment. Ala(piperidin-4-yl) = O=C([C@H](CC1CCN([*:3])CC1)N[*:1])[*:2]; DOTA = O=C(O)CN1CCN(CC(=O)O)CCN(CC(=O)*)CCN(CC(=O)O)CC1; Phe(4-NHCONH2) = NC(=O)Nc1ccc(C[C@H](N)C(=O)O)cc1; Trp(5-F) = N[C@@H](Cc1c[nH]c2ccc(F)cc12)C(=O)O; X13 = NC(=O)N1CCC(C[C@H](N[*:1])C(=O)[*:2])CC1; X15 = CC(=O)N1CCC(C[C@H](N[*:1])C(=O)[*:2])CC1; X1 = C[C@@H](c1ccccc1)[C@H](N[*:1])C(=O)[*:2]; 1Nal = N[C@@H](Cc1cccc2ccccc12)C(=O)O; Ala(4-THP) = N[C@@H](CC1CCOCC1)C(=O)O; Val(3-OH) = CC(C)(O)[C@H](N)C(=O)O; PEG4 = NCCOCCOCCOCCOCCC(=O)O; Tle = CC(C)(C)[C@H](N)C(=O)O; hLeu = CC(C)CC[C@H](N)C(=O)O; βAla = NCCC(=O)O

target: T1, human 4lg B7-H3 (Homo sapiens, UniProt Q5ZPR3); experiment: Affinity determination by surface plasmon resonance (SPR) to 4Ig B7-H3; settings: SPR KD—37° C., 4Ig B7-H3; 37° C. flow cell temperature
T1 sequence (Q5ZPR3 29-534): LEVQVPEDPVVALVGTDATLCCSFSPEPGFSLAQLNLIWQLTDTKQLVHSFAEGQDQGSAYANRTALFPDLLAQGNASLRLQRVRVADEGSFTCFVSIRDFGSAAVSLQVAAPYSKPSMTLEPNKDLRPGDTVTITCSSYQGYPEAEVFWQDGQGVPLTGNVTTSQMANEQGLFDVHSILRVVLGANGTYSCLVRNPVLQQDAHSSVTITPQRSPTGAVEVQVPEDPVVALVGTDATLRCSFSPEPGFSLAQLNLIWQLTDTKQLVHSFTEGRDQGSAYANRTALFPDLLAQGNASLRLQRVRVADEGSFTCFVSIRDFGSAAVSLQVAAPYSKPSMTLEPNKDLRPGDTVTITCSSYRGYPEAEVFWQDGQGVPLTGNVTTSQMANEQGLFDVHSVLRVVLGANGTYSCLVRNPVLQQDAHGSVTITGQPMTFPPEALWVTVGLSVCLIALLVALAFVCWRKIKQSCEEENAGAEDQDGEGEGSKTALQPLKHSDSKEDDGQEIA

Kd, < 1 nM:
CC(=O)N[C@@H](CCC(C)C)C(=O)N[C@@H](Cc1ccc(O)cc1)C(=O)N[C@H]1CSSC[C@@H](C(=O)N[C@@H](Cc2c[nH]c3ccc(F)cc23)C(=O)N[C@H](C(=O)N[C@H](C(=O)N[C@H](CCCCNC(=O)CN2CCN(CC(=O)O)CCN(CC(=O)O)CCN(CC(=O)O)CC2)C(=O)N[C@H](CCC(=O)O)C(=O)O)C(C)(C)O)[C@@H](C)c2ccccc2)NC(=O)[C@H](Cc2ccc(NC(N)=O)cc2)NC(=O)[C@H](C(C)C)NC(=O)[C@H](CC(=O)O)NC(=O)[C@H](CC2CCOCC2)NC(=O)[C@H](CC2CCNCC2)NC(=O)CNC(=O)[C@H](C(C)(C)C)NC1=O [compound 508, Ac-hLeu-Y-C-Tbg-G-PipAla-ThpA-D-V-Aph(Cbm)-C-5FW-[(2S, 3S)beta-Me-Phe]-hydroxyVal-dLys(DOTA)-dGlu-COOH] (Ac-[hLeu]YC[Tle]G[Ala(piperidin-4-yl)][Ala(4-THP)]DV[Phe(4-NHCONH2)]C[Trp(5-F)][X1][Val(3-OH)][dK](DOTA)[dE]-OH; disulfide 3-11)
CC(=O)N[C@@H](CCC(C)C)C(=O)N[C@@H](Cc1ccc(O)cc1)C(=O)N[C@H]1CSSC[C@@H](C(=O)N[C@@H](Cc2c[nH]c3ccc(F)cc23)C(=O)N[C@H](C(=O)N[C@H](C(=O)N[C@@H](CCCCNC(=O)CN2CCN(CC(=O)O)CCN(CC(=O)O)CCN(CC(=O)O)CC2)C(=O)O)C(C)(C)O)[C@@H](C)c2ccccc2)NC(=O)[C@H](Cc2ccc(O)cc2)NC(=O)[C@H](C(C)C)NC(=O)[C@H](CC(=O)O)NC(=O)[C@H](CC2CCOCC2)NC(=O)[C@H](CC2CCNCC2)NC(=O)CNC(=O)[C@H](C(C)(C)C)NC1=O [compound 509, Ac-hLeu-Y-C-Tbg-G-PipAla-ThpA-D-V-Y-C-5FW-[(2S, 3S)beta-Me-Phe]-hydroxyVal-Lys(DOTA)-COOH] (Ac-[hLeu]YC[Tle]G[Ala(piperidin-4-yl)][Ala(4-THP)]DVYC[Trp(5-F)][X1][Val(3-OH)]K(DOTA)-OH; disulfide 3-11)
CC(=O)N[C@@H](CCC(C)C)C(=O)N[C@@H](Cc1ccc(O)cc1)C(=O)N[C@H]1CSSC[C@@H](C(=O)N[C@@H](Cc2c[nH]c3ccc(F)cc23)C(=O)N[C@H](C(=O)N[C@H](C(=O)NCC(=O)O)C(C)(C)O)[C@@H](C)c2ccccc2)NC(=O)[C@H](Cc2ccc(O)cc2)NC(=O)[C@H](C(C)C)NC(=O)[C@H](CC(=O)O)NC(=O)[C@H](CC2CCN(C(=O)CCOCCOCCOCCOCCNC(=O)CN3CCN(CC(=O)O)CCN(CC(=O)O)CCN(CC(=O)O)CC3)CC2)NC(=O)[C@H](CC2CCNCC2)NC(=O)CNC(=O)[C@H](C(C)(C)C)NC1=O [compound 510, Ac-hLeu-Y-C-Tbg-G-PipAla-Pip(PEG4-DOTA)Ala-D-V-Y-C-5FW-[(2S, 3S)beta-Me-Phe]-hydroxyVal-Gly-COOH] (Ac-[hLeu]YC[Tle]G[Ala(piperidin-4-yl)][Ala(piperidin-4-yl)]([PEG4-DOTA])DVYC[Trp(5-F)][X1][Val(3-OH)]G-OH; disulfide 3-11)
CC(=O)N[C@@H](CCC(C)C)C(=O)N[C@@H](Cc1ccc(O)cc1)C(=O)N[C@H]1CSSC[C@@H](C(=O)N[C@@H](Cc2c[nH]c3ccc(F)cc23)C(=O)N[C@H](C(=O)N[C@H](C(=O)NCCC(=O)O)C(C)(C)O)[C@@H](C)c2ccccc2)NC(=O)[C@H](Cc2ccc(O)cc2)NC(=O)[C@H](C(C)C)NC(=O)[C@H](CC(=O)O)NC(=O)[C@H](CC2CCN(C(=O)CCOCCOCCOCCOCCNC(=O)CN3CCN(CC(=O)O)CCN(CC(=O)O)CCN(CC(=O)O)CC3)CC2)NC(=O)[C@H](CC2CCNCC2)NC(=O)CNC(=O)[C@H](C(C)(C)C)NC1=O [compound 511, Ac-hLeu-Y-C-Tbg-G-PipAla-Pip(PEG4-DOTA)Ala-D-V-Y-C-5FW-[(2S, 3S)beta-Me-Phe]-hydroxyVal-betaAla-COOH] (Ac-[hLeu]YC[Tle]G[Ala(piperidin-4-yl)][Ala(piperidin-4-yl)]([PEG4-DOTA])DVYC[Trp(5-F)][X1][Val(3-OH)][βAla]-OH; disulfide 3-11)
CC(=O)NCCCC[C@@H]1NC(=O)CNC(=O)[C@H](C(C)(C)C)NC(=O)[C@@H](NC(=O)[C@H](Cc2ccc(O)cc2)NC(=O)[C@H](CCC(C)C)NC(C)=O)CSSC[C@@H](C(=O)N[C@@H](Cc2c[nH]c3ccc(F)cc23)C(=O)N[C@H](C(=O)N[C@H](C(=O)N[C@H](C)C(=O)O)C(C)(C)O)[C@@H](C)c2ccccc2)NC(=O)[C@H](Cc2ccc(O)cc2)NC(=O)[C@H](C(C)C)NC(=O)[C@H](CC(=O)O)NC(=O)[C@H](CC2CCN(C(=O)CCOCCOCCOCCOCCNC(=O)CN3CCN(CC(=O)O)CCN(CC(=O)O)CCN(CC(=O)O)CC3)CC2)NC1=O [compound 512, Ac-hLeu-Y-C-Tbg-G-Lys(Ac)-Pip(PEG4-DOTA)Ala-D-V-Y-C-5FW-[(2S, 3S)beta-Me-Phe]-hydroxyVal-dAla-COOH] (Ac-[hLeu]YC[Tle]GK(Ac)[Ala(piperidin-4-yl)]([PEG4-DOTA])DVYC[Trp(5-F)][X1][Val(3-OH)][dA]-OH; disulfide 3-11)
CC(=O)N[C@@H](CCC(C)C)C(=O)N[C@@H](Cc1ccc(O)cc1)C(=O)N[C@H]1CSSC[C@@H](C(=O)N[C@@H](Cc2c[nH]c3ccc(F)cc23)C(=O)N[C@H](C(=O)N[C@H](C(=O)N[C@H](C)C(=O)O)C(C)(C)O)[C@@H](C)c2ccccc2)NC(=O)[C@H](Cc2ccc(O)cc2)NC(=O)[C@H](C(C)C)NC(=O)[C@H](CC(=O)O)NC(=O)[C@H](CC2CCN(C(=O)CCOCCOCCOCCOCCNC(=O)CN3CCN(CC(=O)O)CCN(CC(=O)O)CCN(CC(=O)O)CC3)CC2)NC(=O)[C@H](CC2CCN(C(C)=O)CC2)NC(=O)CNC(=O)[C@H](C(C)(C)C)NC1=O [compound 513, Ac-hLeu-Y-C-Tbg-G-Pip(Ac)Ala-Pip(PEG4-DOTA)Ala-D-V-Y-C-5FW-[(2S, 3S)beta-Me-Phe]-hydroxyVal-dAla-COOH] (Ac-[hLeu]YC[Tle]G[X15][Ala(piperidin-4-yl)]([PEG4-DOTA])DVYC[Trp(5-F)][X1][Val(3-OH)][dA]-OH; disulfide 3-11)
CC(=O)N[C@@H](CCC(C)C)C(=O)N[C@@H](Cc1ccc(O)cc1)C(=O)N[C@H]1CSSC[C@@H](C(=O)N[C@@H](Cc2c[nH]c3ccc(F)cc23)C(=O)N[C@H](C(=O)N[C@H](C(=O)N[C@H](C)C(=O)O)C(C)(C)O)[C@@H](C)c2ccccc2)NC(=O)[C@H](Cc2ccc(O)cc2)NC(=O)[C@H](C(C)C)NC(=O)[C@H](CC(=O)O)NC(=O)[C@H](CC2CCN(C(=O)CCOCCOCCOCCOCCNC(=O)CN3CCN(CC(=O)O)CCN(CC(=O)O)CCN(CC(=O)O)CC3)CC2)NC(=O)[C@H](CC2CCN(C(N)=O)CC2)NC(=O)CNC(=O)[C@H](C(C)(C)C)NC1=O [compound 514, Ac-hLeu-Y-C-Tbg-G-Pip(CONH2)Ala-Pip(PEG4-DOTA)Ala-D-V-Y-C-5FW-[(2S, 3S)beta-Me-Phe]-hydroxyVal-dAla-COOH] (Ac-[hLeu]YC[Tle]G[X13][Ala(piperidin-4-yl)]([PEG4-DOTA])DVYC[Trp(5-F)][X1][Val(3-OH)][dA]-OH; disulfide 3-11)
CC(=O)NCCOCCOCCOCCOCCC(=O)N1CCC(C[C@@H]2NC(=O)[C@H](CC3CCNCC3)NC(=O)CNC(=O)[C@H](C(C)(C)C)NC(=O)[C@@H](NC(=O)[C@H](Cc3ccc(O)cc3)NC(=O)[C@H](CCC(C)C)NC(C)=O)CSSC[C@@H](C(=O)N[C@@H](Cc3c[nH]c4ccc(F)cc34)C(=O)N[C@H](C(=O)N[C@H](C(=O)N[C@H](CCCCNC(=O)CN3CCN(CC(=O)O)CCN(CC(=O)O)CCN(CC(=O)O)CC3)C(=O)O)C(C)(C)O)[C@@H](C)c3ccccc3)NC(=O)[C@H](Cc3ccc(O)cc3)NC(=O)[C@H](C(C)C)NC(=O)[C@H](CC(=O)O)NC2=O)CC1 [compound 515, Ac-hLeu-Y-C-Tbg-G-PipAla-Pip(PEG4-Ac)Ala-D-V-Y-C-5FW-[(2S, 3S)beta-Me-Phe]-hydroxyVal-dLys(DOTA)-COOH] (Ac-[hLeu]YC[Tle]G[Ala(piperidin-4-yl)][Ala(piperidin-4-yl)]([PEG4-Ac])DVYC[Trp(5-F)][X1][Val(3-OH)][dK](DOTA)-OH; disulfide 3-11)
CC(=O)N[C@@H](CCC(C)C)C(=O)N[C@@H](Cc1ccc(O)cc1)C(=O)N[C@H]1CSSC[C@@H](C(=O)N[C@@H](Cc2cccc3ccccc23)C(=O)N[C@H](C(=O)N[C@H](C(=O)N[C@H](CCCCNC(=O)CN2CCN(CC(=O)O)CCN(CC(=O)O)CCN(CC(=O)O)CC2)C(=O)O)C(C)(C)O)[C@@H](C)c2ccccc2)NC(=O)[C@H](Cc2ccc(O)cc2)NC(=O)[C@H](C(C)C)NC(=O)[C@H](CC(=O)O)NC(=O)[C@H](CC2CCOCC2)NC(=O)[C@H](CC2CCNCC2)NC(=O)CNC(=O)[C@H](C(C)(C)C)NC1=O [compound 516, Ac-hLeu-Y-C-Tbg-G-PipAla-ThpA-D-V-Y-C-1Nal-[(2S, 3S)beta-Me-Phe]-hydroxyVal-dLys(DOTA)-COOH] (Ac-[hLeu]YC[Tle]G[Ala(piperidin-4-yl)][Ala(4-THP)]DVYC[1Nal][X1][Val(3-OH)][dK](DOTA)-OH; disulfide 3-11)
